Measurements from patent US20090280549A1, “Method for Treating Body Fluid” (priority 2005, published 2009).

Legend:
[1] = tested on: neutrophils; experiment: ATX-S10•Na(II) uptake into neutrophils; format: cell-based, human
Procedure: (§1) After labeling the compound represented by formula (II) above (hereinafter referred to as “ATX-S10•Na(II)”) with ^14C, the ATX-S10•Na(II) was dissolved in saline at a concentration of approximately 1×10^−3 mol/L, and the solution was filtered and sterilized with a 0.22 μm filter and then diluted with 1% FBS (fetal bovine serum)-containing RPMI1640 medium to prepare a 5×10^−5 mol/L ATX-S10•Na(II)-added solution.
Erythrocytes, platelets, neutrophils and lymphocytes were prepared from blood sampled from three healthy persons (designated as A, B and C).
The erythrocytes, neutrophils and lymphocytes were prepared from heparinized blood. The heparinized blood and 6% dextran-added saline were mixed in a proportion of 3:1 (v:v), and the mixture was allowed to stand at room temperature for 30 minutes. The upper layer leukocyte fraction was centrifuged with a centrifuge tube (900 rpm, 10 minutes, 4° C.), and the precipitate was suspended in saline, superposed onto Ficoll-Hypaque® solution and centrifuged (1600 rpm, 30 minutes, room temperature). The intermediate layer was used as the lymphocyte fraction (containing monocytes) and the precipitate was used as the neutrophil fraction. The neutrophil fraction was suspended in ice-cold 0.2% NaCl solution for hemolysis, and then an equivalent amount of ice-cold 1.6% NaCl solution was immediately added to restore isotonicity. The crude erythrocyte fraction was diluted with KRP (Krebs-Ringer phosphate buffer) and centrifuged (2000 rpm, 5 minutes, 4° C.), and the buffy coat (leukocyte layer) was removed. This procedure was further repeated 4 times to yield the erythrocyte fraction.
(§2) After adding 400 μL of the cell suspension and 100 μL of the ATX-S10•Na(II)-added solution to each well of a 48-well microplate and mixing, the mixtures were incubated with a CO2 incubator (37° C., 5% CO2) or allowed to stand in a refrigerating chamber (approximately 4° C.). The cells were separated immediately after addition (0 hours after addition) and 1 hour, 3 hours, 20 hours and 44 hours after addition, and ATX-S10•Na(II) uptake into the cells (including cell surface binding) was measured. The uptake with standing at 4° C. corresponds to cell surface binding, and the value of the uptake with incubation at 37° C. minus the uptake with standing at 4° C. is presumed to correspond to the substantial ATX-S 10 Na(II) uptake for each type of cell.
(§3) The cell separation and uptake measurement were performed in the following manner. Specifically, 1 mL of 1.5% BSA (bovine serum albumin)-containing PBS solution (ice-cold) was placed in a 1.5 mL tube. The suspension of cells to be separated was gently pipetted and mixed, and a 100 μL portion was taken and superposed onto the 1.5% BSA-containing PBS solution. For each well, the cell suspension (300 μL) was dispensed into three tubes (n=3). After centrifugation (3200 rpm, 10 minutes, 4° C.), the medium and 1.5% BSA-containing PBS solution were removed by suction, and then the precipitate was suspended in 100 μL of PBS(−), and 1 mL of PBS(−) was further added and mixed therewith. After additional centrifugation (3000 rpm, 10 minutes, 4° C.), the supernatant was removed by suction, and the bottom of the tube, where the precipitate is present, was cut out and transferred to a counting vial. Then 4.5 mL of liquid scintillator was added and mixed therewith, and the radioactivity was measured for 5 minutes using a liquid scintillation counter. The measured radioactivity was used to calculate the ATX-S10•Na(II) uptake (pmol/10^5 cells) into the cells.
Uptake into neutrophils was measured also with addition of N-formyl-L-methionyl-L-leucyl-L-phenylalanine (hereinafter referred to as “fMLP”) (final concentration: 1×10^−7 mol/L or 1×10^−6 mol/L) or phorbol 12-myristate 13-acetate (hereinafter referred to as “PMA”) (final concentration: 1×10^−7 mol/L) to the cell suspension together with ATX-S10•Na(II).

[2] = tested on: A3/KAW cells (human malignant lymphoma cells); experiment: ATX-S10•Na(II) uptake into A3/KAW cells; format: cell-based; conditions: for ATX-S10•Na(II) uptake: A3/KAW
Procedure: as §1
(§4) As malignant lymphoma cells and leukemia cells, there were used THP-1 cells (human monocytic leukemia cells), EoL-1 cells (human eosinophilic leukemia cells), A3/KAW cells (human malignant lymphoma cells) and KG-1 cells (human acute myeloid leukemia cells). All of the cells were cultured using 10% FBS-containing RPMI1640 medium, with subculturing 1 to 2 times per week during the culturing. The THP-1 cells and EoL-1 cells were obtained from RIKEN BioResource Center, and the A3/KAW cells and KG-1 cells were obtained from Japan Health Sciences Foundation.
as §2, §3

[3] = tested on: THP-1 cells (activated macrophages) stimulated with PMA; experiment: ATX-S10•Na(II) uptake into THP-1 cells stimulated with PMA; format: cell-based, human
Procedure: as §1, §4, §2, §3
Uptake into THP-1 cells was measured also with stimulation of the cells for approximately 24 hours with PMA (2 nmol/L, 5 nmol/L or 15 nmol/L) and addition of ATX-S10•Na(II) to the cell suspension immediately after removal of the PMA. THP-1 cells differentiate into macrophages upon stimulation with PMA.

## C=Cc1c(C)c2cc3nc(cc4[nH]c(cc5nc(cc1[nH]2)C(C)=C5CCC(=O)NC(CC(=O)[O-])C(=O)[O-])c(CCC(=O)NC(CC(=O)[O-])C(=O)[O-])c4C)C(C)(O)/C3=C\C=NO.[Na+].[Na+].[Na+].[Na+] (stereo not shown) [ATX-S10•Na(II)]
[1]; Neutrophil (A), donor A, 0 hr, immediately after addition
  ATX-S10•Na(II) uptake: 0.21 pmol/10^5 cells
[1]; Neutrophil (A), 3 hr, incubation at 37° C.
  ATX-S10•Na(II) uptake: 0.38 pmol/10^5 cells
[1]; Neutrophil (A), 3 hr, standing at 4° C.
  ATX-S10•Na(II) uptake: 0.46 pmol/10^5 cells
[1]; Neutrophil (A), 20 hr, incubation at 37° C.
  ATX-S10•Na(II) uptake: 4.93 pmol/10^5 cells
[1]; Neutrophil (A), 20 hr, standing at 4° C.
  ATX-S10•Na(II) uptake: 0.57 pmol/10^5 cells
[1]; Neutrophil (B), 3 hr, incubation at 37° C.
  ATX-S10•Na(II) uptake: 0.40 pmol/10^5 cells
[1]; Neutrophil (B), 3 hr, standing at 4° C.
  ATX-S10•Na(II) uptake: 1.27 pmol/10^5 cells
[1]; Neutrophil (B), 20 hr, incubation at 37° C.
  ATX-S10•Na(II) uptake: 4.04 pmol/10^5 cells
[1]; Neutrophil (B), 20 hr, standing at 4° C.
  ATX-S10•Na(II) uptake: 0.47 pmol/10^5 cells
[1]; Neutrophil (B), 44 hr, incubation at 37° C.
  ATX-S10•Na(II) uptake: 16.32 pmol/10^5 cells
[1]; Neutrophil (B), 44 hr, standing at 4° C.
  ATX-S10•Na(II) uptake: 0.68 pmol/10^5 cells
[1]; Neutrophil (C), 3 hr, incubation at 37° C.
  ATX-S10•Na(II) uptake: 0.72 pmol/10^5 cells
[1]; Neutrophil (C), 3 hr, standing at 4° C.
  ATX-S10•Na(II) uptake: 0.36 pmol/10^5 cells
[1]; Neutrophil (C), 20 hr, incubation at 37° C.
  ATX-S10•Na(II) uptake: 10.13 pmol/10^5 cells
[1]; Neutrophil (C), 20 hr, standing at 4° C.
  ATX-S10•Na(II) uptake: 0.95 pmol/10^5 cells
[1]; Neutrophil stimulated with 1×10^−6 mol/L fMLP, 3 hr, incubation at 37° C.
  ATX-S10•Na(II) uptake: 0.75 pmol/10^5 cells
[1]; Neutrophil stimulated with 1×10^−6 mol/L fMLP, 3 hr, standing at 4° C.
  ATX-S10•Na(II) uptake: 2.02 pmol/10^5 cells
[1]; Neutrophil stimulated with 1×10^−6 mol/L fMLP, 20 hr, incubation at 37° C.
  ATX-S10•Na(II) uptake: 3.57 pmol/10^5 cells
[1]; Neutrophil stimulated with 1×10^−6 mol/L fMLP, 20 hr, standing at 4° C.
  ATX-S10•Na(II) uptake: 0.57 pmol/10^5 cells
[1]; Neutrophil stimulated with 1×10^−6 mol/L fMLP, 44 hr, incubation at 37° C.
  ATX-S10•Na(II) uptake: 14.14 pmol/10^5 cells
[1]; Neutrophil stimulated with 1×10^−6 mol/L fMLP, 44 hr, standing at 4° C.
  ATX-S10•Na(II) uptake: 3.28 pmol/10^5 cells
[1]; Neutrophil stimulated with 1×10^−7 mol/L PMA, 3 hr, incubation at 37° C.
  ATX-S10•Na(II) uptake: 4.45 pmol/10^5 cells
[1]; Neutrophil stimulated with 1×10^−7 mol/L PMA, 3 hr, standing at 4° C.
  ATX-S10•Na(II) uptake: 2.76 pmol/10^5 cells
[1]; Neutrophil stimulated with 1×10^−7 mol/L PMA, 20 hr, incubation at 37° C.
  ATX-S10•Na(II) uptake: 7.33 pmol/10^5 cells
[1]; Neutrophil stimulated with 1×10^−7 mol/L PMA, 20 hr, standing at 4° C.
  ATX-S10•Na(II) uptake: 1.09 pmol/10^5 cells
[1]; Neutrophil stimulated with 1×10^−7 mol/L fMLP, 3 hr, incubation at 37° C.
  ATX-S10•Na(II) uptake: 0.79 pmol/10^5 cells
[1]; Neutrophil stimulated with 1×10^−7 mol/L fMLP, 3 hr, standing at 4° C.
  ATX-S10•Na(II) uptake: 0.97 pmol/10^5 cells
[1]; Neutrophil stimulated with 1×10^−7 mol/L fMLP, 20 hr, incubation at 37° C.
  ATX-S10•Na(II) uptake: 2.67 pmol/10^5 cells
[1]; Neutrophil stimulated with 1×10^−7 mol/L fMLP, 20 hr, standing at 4° C.
  ATX-S10•Na(II) uptake: 0.50 pmol/10^5 cells
[1]; neutrophils after stimulation with WILP or PMA
  uptake after stimulation compared with unstimulated cells: no increase in uptake
[1]; neutrophils versus EoL-1, THP-1 and A3/KAW cells
  uptake compared between cell types: higher than EoL-1 cells, although not as high as THP-1 cells or A3/KAW cells
[1]; neutrophils, course over incubation time
  substantial uptake of ATX-S10•Na(II) (uptake at 37° C. minus uptake at 4° C.): increased with incubation time
[2]; A3/KAW cells, course over incubation time
  substantial uptake of ATX-S10•Na(II) (uptake at 37° C. minus uptake at 4° C.): increased with incubation time
[2]; 0 hr, immediately after addition
  ATX-S10•Na(II) uptake: 0.72 pmol/10^5 cells
[2]; 1 hr, incubation at 37° C.
  ATX-S10•Na(II) uptake: 2.38 pmol/10^5 cells
[2]; 1 hr, standing at 4° C.
  ATX-S10•Na(II) uptake: 1.16 pmol/10^5 cells
[2]; 3 hr, incubation at 37° C.
  ATX-S10•Na(II) uptake: 3.79 pmol/10^5 cells
[2]; 3 hr, standing at 4° C.
  ATX-S10•Na(II) uptake: 1.06 pmol/10^5 cells
[2]; 20 hr, incubation at 37° C.
  ATX-S10•Na(II) uptake: 10.06 pmol/10^5 cells
[2]; 20 hr, standing at 4° C.
  ATX-S10•Na(II) uptake: 1.44 pmol/10^5 cells
[2]; 44 hr, incubation at 37° C.
  ATX-S10•Na(II) uptake: 27.64 pmol/10^5 cells
[2]; 44 hr, standing at 4° C.
  ATX-S10•Na(II) uptake: 5.07 pmol/10^5 cells
[3]; THP-1 cells (activated macrophages) stimulated with PMA for 24 hours
  uptake compared with unstimulated cells: higher than without stimulation with PMA
[3]; THP-1 stimulated with 2 nmol/L PMA, 0 hr, immediately after addition
  ATX-S10•Na(II) uptake: 1.66 pmol/10^5 cells
[3]; THP-1 stimulated with 2 nmol/L PMA, 3 hr, incubation at 37° C.
  ATX-S10•Na(II) uptake: 6.66 pmol/10^5 cells
[3]; THP-1 stimulated with 2 nmol/L PMA, 3 hr, standing at 4° C.
  ATX-S10•Na(II) uptake: 7.05 pmol/10^5 cells
[3]; THP-1 stimulated with 2 nmol/L PMA, 20 hr, incubation at 37° C.
  ATX-S10•Na(II) uptake: 11.75 pmol/10^5 cells
[3]; THP-1 stimulated with 2 nmol/L PMA, 20 hr, standing at 4° C.
  ATX-S10•Na(II) uptake: 5.32 pmol/10^5 cells
[3]; THP-1 stimulated with 5 nmol/L PMA, 0 hr, immediately after addition
  ATX-S10•Na(II) uptake: 2.07 pmol/10^5 cells
[3]; THP-1 stimulated with 5 nmol/L PMA, 3 hr, incubation at 37° C.
  ATX-S10•Na(II) uptake: 11.37 pmol/10^5 cells
[3]; THP-1 stimulated with 5 nmol/L PMA, 3 hr, standing at 4° C.
  ATX-S10•Na(II) uptake: 8.48 pmol/10^5 cells
[3]; THP-1 stimulated with 5 nmol/L PMA, 20 hr, incubation at 37° C.
  ATX-S10•Na(II) uptake: 16.06 pmol/10^5 cells
[3]; THP-1 stimulated with 5 nmol/L PMA, 20 hr, standing at 4° C.
  ATX-S10•Na(II) uptake: 7.53 pmol/10^5 cells
[3]; THP-1 stimulated with 15 nmol/L PMA, 0 hr, immediately after addition
  ATX-S10•Na(II) uptake: 2.93 pmol/10^5 cells
[3]; THP-1 stimulated with 15 nmol/L PMA, 3 hr, incubation at 37° C.
  ATX-S10•Na(II) uptake: 18.31 pmol/10^5 cells
[3]; THP-1 stimulated with 15 nmol/L PMA, 3 hr, standing at 4° C.
  ATX-S10•Na(II) uptake: 12.74 pmol/10^5 cells
[3]; THP-1 stimulated with 15 nmol/L PMA, 20 hr, incubation at 37° C.
  ATX-S10•Na(II) uptake: 19.95 pmol/10^5 cells
[3]; THP-1 stimulated with 15 nmol/L PMA, 20 hr, standing at 4° C.
  ATX-S10•Na(II) uptake: 9.13 pmol/10^5 cells
